Converted amounts (≈) assume the structure as drawn.

This note sets out measurements from ChEMBL document CHEMBL1153710, “Synthesis, stereochemistry and antimicrobial studies of novel oxime ethers of aza/diazabicycles” (2009).

One experiment relates to Aspergillus flavus. Nature of the experiment: Antifungal activity against Aspergillus flavus by twofold serial dilution method. The class given is functional.
A further experiment concerns Aspergillus niger. As to the kind of experiment: Antifungal activity against Aspergillus niger by twofold serial dilution method. It is filed as functional.
The subject of the next experiment is Candida albicans. Nature of the experiment: Antifungal activity against Candida albicans by twofold serial dilution method. The class given is functional.
For a further experiment, the system named is Pseudomonas aeruginosa. Nature of the experiment: Antibacterial activity against Pseudomonas aeruginosa by twofold serial dilution method. It is filed as functional.
Another experiment relates to Rhizopus. Nature of the experiment: Antifungal activity against Rhizopus sp. by twofold serial dilution method. The class given is functional.
The subject of the next experiment is Staphylococcus aureus. Nature of the experiment: Antibacterial activity against Staphylococcus aureus by twofold serial dilution method. It is filed as functional.
The next experiment relates to Escherichia coli. Nature of the experiment: Antibacterial activity against Escherichia coli by twofold serial dilution method. The class given is functional.
A further experiment relates to Klebsiella pneumoniae. Nature of the experiment: Antibacterial activity against Klebsiella pneumoniae by twofold serial dilution method. The class given is functional.
The next experiment has as its system Candida. As to the kind of experiment: Antifungal activity against Candida 51 by twofold serial dilution method. It is filed as functional.
For a further experiment, the system named is Salmonella enterica. As to the kind of experiment: Antibacterial activity against Salmonella typhi by twofold serial dilution method. The class given is functional, Salmonella enterica subsp. enterica serovar Typhi.

On to `c1ccc(CON=C2C3C(c4ccccc4)NC(c4ccccc4)C2C(c2ccccc2)NC3c2ccccc2)cc1` (centres undefined), for which the MIC in the experiment with Aspergillus flavus was 200 µg/mL (≈ 364 µM); against Aspergillus niger it was 100 µg/mL (≈ 182 µM); with Candida albicans it was 100 µg/mL (≈ 182 µM); with Pseudomonas aeruginosa, 100 µg/mL (≈ 182 µM); in the experiment on Rhizopus it was 200 µg/mL (≈ 364 µM); against Staphylococcus aureus, 200 µg/mL (≈ 364 µM). Also, the MIC against Escherichia coli was 100 µg/mL (≈ 182 µM); with Klebsiella pneumoniae, over 200 µg/mL; in the experiment on Candida, over 200 µg/mL.

Consider `Fc1cccc(C2NC(c3cccc(F)c3)C3C(=NOCc4ccccc4)C2C(c2cccc(F)c2)NC3c2cccc(F)c2)c1` (centres undefined), for which the minimal inhibitory concentration (MIC) was 25 µg/mL (≈ 40.2 µM) with Aspergillus flavus; 50 µg/mL (≈ 80.4 µM) with Aspergillus niger; 25 µg/mL (≈ 40.2 µM) with Candida albicans; 12.5 µg/mL (≈ 20.1 µM) with Pseudomonas aeruginosa; 50 µg/mL (≈ 80.4 µM) against Rhizopus; 12.5 µg/mL (≈ 20.1 µM) with Staphylococcus aureus. Besides, the MIC against Escherichia coli was 25 µg/mL (≈ 40.2 µM); in the experiment with Klebsiella pneumoniae it was 50 µg/mL (≈ 80.4 µM); in the experiment with Candida, 50 µg/mL (≈ 80.4 µM).

On to `Fc1ccc(C2NC(c3ccc(F)cc3)C3C(=NOCc4ccccc4)C2C(c2ccc(F)cc2)NC3c2ccc(F)cc2)cc1` (centres undefined), for which the MIC is 50 µg/mL (≈ 80.4 µM) against Aspergillus flavus; 25 µg/mL (≈ 40.2 µM) in the experiment with Aspergillus niger; 12.5 µg/mL (≈ 20.1 µM) against Candida albicans; 6.25 µg/mL (≈ 10.1 µM) against Pseudomonas aeruginosa; 12.5 µg/mL (≈ 20.1 µM) against Rhizopus; 12.5 µg/mL (≈ 20.1 µM) in the experiment on Staphylococcus aureus. Also, the minimum inhibitory concentration (MIC) turned out to be 12.5 µg/mL (≈ 20.1 µM) in the experiment with Escherichia coli, 25 µg/mL (≈ 40.2 µM) against Klebsiella pneumoniae and 25 µg/mL (≈ 40.2 µM) against Candida.

With `Clc1ccc(C2NC(c3ccc(Cl)cc3)C3C(=NOCc4ccccc4)C2C(c2ccc(Cl)cc2)NC3c2ccc(Cl)cc2)cc1` (centres undefined), the MIC was 12.5 µg/mL (≈ 18.2 µM) against Aspergillus flavus; 25 µg/mL (≈ 36.4 µM) against Aspergillus niger; 12.5 µg/mL (≈ 18.2 µM) in the experiment on Candida albicans; 6.25 µg/mL (≈ 9.09 µM) in the experiment with Pseudomonas aeruginosa; 25 µg/mL (≈ 36.4 µM) against Rhizopus; 25 µg/mL (≈ 36.4 µM) against Staphylococcus aureus. The MIC against Escherichia coli, in the experiment on Klebsiella pneumoniae and against Candida was 50 µg/mL (≈ 72.7 µM) throughout.

For `Cc1ccc(C2NC(c3ccc(C)cc3)C3C(=NOCc4ccccc4)C2C(c2ccc(C)cc2)NC3c2ccc(C)cc2)cc1` (centres undefined), the minimal inhibitory concentration (MIC) is 25 µg/mL (≈ 41.3 µM) against Aspergillus flavus; 50 µg/mL (≈ 82.5 µM) in the experiment with Aspergillus niger; 25 µg/mL (≈ 41.3 µM) against Candida albicans; 6.25 µg/mL (≈ 10.3 µM) in the experiment on Pseudomonas aeruginosa; 50 µg/mL (≈ 82.5 µM) in the experiment with Rhizopus; 25 µg/mL (≈ 41.3 µM) against Staphylococcus aureus. The values for the minimum inhibitory concentration (MIC) with Escherichia coli, in the experiment on Klebsiella pneumoniae and in the experiment with Candida were 25 µg/mL (≈ 41.3 µM), 100 µg/mL (≈ 165 µM) and 50 µg/mL (≈ 82.5 µM), respectively.

On to `COc1ccc(C2NC(c3ccc(OC)cc3)C3C(=NOCc4ccccc4)C2C(c2ccc(OC)cc2)NC3c2ccc(OC)cc2)cc1` (centres undefined), for which the MIC came out at 50 µg/mL (≈ 74.6 µM) against Aspergillus flavus; 25 µg/mL (≈ 37.3 µM) with Aspergillus niger; 50 µg/mL (≈ 74.6 µM) in the experiment with Candida albicans; 12.5 µg/mL (≈ 18.7 µM) in the experiment on Pseudomonas aeruginosa; 50 µg/mL (≈ 74.6 µM) with Rhizopus; 25 µg/mL (≈ 37.3 µM) with Staphylococcus aureus. Also, the values for the MIC in the experiment on Escherichia coli, with Klebsiella pneumoniae and in the experiment on Candida were 50 µg/mL (≈ 74.6 µM), 100 µg/mL (≈ 149 µM) and 100 µg/mL (≈ 149 µM), respectively.

As to `CN1C(c2ccc(F)cc2)C2CCCC(C2=NOCc2ccccc2)C1c1ccc(F)cc1` (centres undefined), the MIC in the experiment on Aspergillus flavus was determined as 50 µg/mL (≈ 112 µM); in the experiment on Salmonella enterica it was 25 µg/mL (≈ 56 µM); against Aspergillus niger, 25 µg/mL (≈ 56 µM); in the experiment with Candida albicans it was 12.5 µg/mL (≈ 28 µM); against Pseudomonas aeruginosa, 12.5 µg/mL (≈ 28 µM); with Rhizopus it was 25 µg/mL (≈ 56 µM). Further, the MIC against Staphylococcus aureus was 50 µg/mL (≈ 112 µM); in the experiment with Escherichia coli, 12.5 µg/mL (≈ 28 µM); in the experiment with Klebsiella pneumoniae it was 25 µg/mL (≈ 56 µM); against Candida, 25 µg/mL (≈ 56 µM).

Turning to `CN1C(c2ccc(Cl)cc2)C2CCCC(C2=NOCc2ccccc2)C1c1ccc(Cl)cc1` (centres undefined), the MIC in the experiment on Aspergillus flavus was 100 µg/mL (≈ 209 µM); in the experiment with Salmonella enterica, 25 µg/mL (≈ 52.1 µM); with Aspergillus niger, 12.5 µg/mL (≈ 26.1 µM); with Candida albicans, 25 µg/mL (≈ 52.1 µM); in the experiment on Pseudomonas aeruginosa, 12.5 µg/mL (≈ 26.1 µM); against Rhizopus, 12.5 µg/mL (≈ 26.1 µM). Besides, the MIC was found to be 12.5 µg/mL (≈ 26.1 µM) against Staphylococcus aureus, 50 µg/mL (≈ 104 µM) in the experiment with Escherichia coli, 50 µg/mL (≈ 104 µM) in the experiment on Klebsiella pneumoniae and 12.5 µg/mL (≈ 26.1 µM) against Candida.

Turning to `COc1ccc(C2C3CCCC(C3=NOCc3ccccc3)C(c3ccc(OC)cc3)N2C)cc1` (centres undefined), the MIC was 100 µg/mL (≈ 212 µM) against Aspergillus flavus; 50 µg/mL (≈ 106 µM) in the experiment with Salmonella enterica; 25 µg/mL (≈ 53.1 µM) in the experiment with Aspergillus niger; 25 µg/mL (≈ 53.1 µM) against Candida albicans; 25 µg/mL (≈ 53.1 µM) against Pseudomonas aeruginosa; 50 µg/mL (≈ 106 µM) against Rhizopus. Moreover, the MIC against Staphylococcus aureus was determined as 50 µg/mL (≈ 106 µM); against Escherichia coli, 25 µg/mL (≈ 53.1 µM); in the experiment with Klebsiella pneumoniae, 100 µg/mL (≈ 212 µM); in the experiment with Candida, 50 µg/mL (≈ 106 µM).

Take `Cc1ccc(C2C3CCCC(C3=NOCc3ccccc3)C(c3ccc(C)cc3)N2C)cc1` (centres undefined): the MIC against Aspergillus flavus was found to be 25 µg/mL (≈ 57 µM); with Salmonella enterica it was 50 µg/mL (≈ 114 µM); in the experiment on Aspergillus niger, 100 µg/mL (≈ 228 µM); against Candida albicans it was 50 µg/mL (≈ 114 µM); in the experiment with Pseudomonas aeruginosa, 25 µg/mL (≈ 57 µM); in the experiment with Rhizopus, 50 µg/mL (≈ 114 µM). The MIC in the experiment with Staphylococcus aureus stood at 25 µg/mL (≈ 57 µM); in the experiment with Escherichia coli, 100 µg/mL (≈ 228 µM); against Klebsiella pneumoniae, 100 µg/mL (≈ 228 µM); against Candida it was 50 µg/mL (≈ 114 µM).

As a reminder, the MIC is the lowest concentration found to suppress growth.
